These results are taken from publication PMC13071375, “Restriction endonuclease selective inhibition by β-cyclodextrin sulfate” (Bioscience Reports, 2025).

In one experiment the target is T1, EcoRI (Escherichia coli, UniProt P00642).
T1 construct: purchased Thermo Fisher Scientific ER0271
In kind it is biochemical.

A further experiment concerns VspI. In kind it is biochemical. The note with it: for IC50: Nl-pBR322 substrate, 20 min digestion at 37°C, Buffer O.
In experiment [1] the target is T2, HindIII (Haemophilus influenzae, UniProt P43870). In words: biochemical. The note with it: Nl-pBR322 substrate, 40 min digestion at 37°C, Buffer R.
T2 sequence (P43870 whole entry): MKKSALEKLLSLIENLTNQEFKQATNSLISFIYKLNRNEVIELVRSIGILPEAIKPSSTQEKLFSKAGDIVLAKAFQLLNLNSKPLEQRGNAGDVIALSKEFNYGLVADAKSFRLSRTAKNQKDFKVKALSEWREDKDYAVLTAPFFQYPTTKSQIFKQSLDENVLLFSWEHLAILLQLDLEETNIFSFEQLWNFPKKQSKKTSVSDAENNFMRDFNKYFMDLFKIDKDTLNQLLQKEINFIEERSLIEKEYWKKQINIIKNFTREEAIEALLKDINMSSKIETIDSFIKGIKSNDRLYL
Protocol: (§2) Digestion time course studies were conducted for each RE by incubating 2 μl of NdeI-linearised pBR322 (2.5 ng/μl), 1 μl of RE (1.25 U/μl), 2 μl of appropriate buffer, and 15 μl of molecular biology grade water at 37°C for various times (Supplementary Figure S1). […] These times were used as the digestion time for the RE inhibition assays.
(§3) To determine the effects of β-CDsul treatment on REs, Nl-pBR322 was incubated at 37°C with EcoRI, VspI, or HindIII for the previously determined amount of time.
(§4) β-CDsul and EDTA stock solutions were made in molecular biology grade water, and dilution series were prepared at appropriate concentrations to give the necessary final concentrations of each in the assay mixture. The assay mixture composition was 2 μl of Nl-pBR322 (2.5 ng/μl), 1 μl of RE (1.25 U/μl), 2 μl of appropriate buffer, 1 μl of β-CDsul or EDTA at desired concentration, and 14 μl of molecular biology grade water. As a negative control, 1 μl extra of microbiology grade water was used instead of EDTA or β-CDsul. After the appropriate amount of incubation time at 37°C, the REs were thermally inactivated by incubation at 65°C for 20 min.
(§5) Electrophoresis gel solution was prepared using 0.8% (w/v) agarose (Thermo Scientific™ Agarose I (Molecular Biology Grade)) with 1× TBE Buffer (Thermo Scientific™ TBE Buffer (Tris–borate–EDTA) (10×)). The mixture was heated until the agarose was completely dissolved and the solution became clear. Sybr Safe DNA stain (1% (v/v), Invitrogen™ SYBR™ Safe DNA Gel Stain) was added into the agarose solution. The final solution was poured into the gel tray and cooled down to room temperature (25°C). […]
(§6) Gel images were captured using a UV-transilluminator capturing system (Syngene™ Ingenius 3 Manual Gel Documentation System) with the following parameters: resolution: 3.0 MP, bit depth: 12/16 bit, and wavelength: 302 nm. The images were analysed using GelAnalyzer [19] software by calculating the normalised intensities of fragment bands.
Another experiment deals with KpnI. More on the design: method as in PMID 25581012. To be noted: cited from earlier work.
Another experiment has as its system XapI. More on the design: method as in PMID 25581012. To be noted: cited from earlier work.
The next experiment concerns SacI. More on the design: method as in PMID 25581012. The note with it: cited from earlier work.
Experiment [2] concerns EcoRI and VspI. Nature of the experiment: Co-digestion assay of Nl-pBR322 with EcoRI and VspI (dual RE system). In kind it is biochemical. How it is done: (§1) The digestion time was either variable or fixed at 120 min for the variable concentration experiment to achieve full digestion. The composition of the components with the co-digestion assays was more complex than single digestion systems due to the need for simultaneously optimising the activity of each RE in the non-ideal buffer system of the other RE.

Experiment [3] has as its system T3, EcoRI and VspI.
T3 construct: purchased Thermo Fisher Scientific ER0271, ER0911
The experiment is described as above. In kind it is biochemical. The method, then:
as §1

For experiment [4], the target named is T2, HindIII. To be noted: read-out: IC50 HindIII; Nl-pBR322 substrate, 40 min digestion at 37°C, Buffer R.
Protocol: as §2, §3, §4, §5, §6
The subject of another experiment is Nrul. More on the design: method as in PMID 25126898. The note with it: digestion of λ DNA; cited from earlier work.
In experiment [5] the target is T2, HindIII. More on the design: purchased Thermo Fisher Scientific ER0501; method as in PMID 25126898. The note with it: digestion of λ DNA; cited from earlier work.
A further experiment relates to REs. More on the design: method as in PMID 25126898. The note with it: cited from earlier work.
Setting [6] is: Nl-pBR322 substrate, 20 min digestion at 37°C, Buffer EcoRI, read-out: IC50 EcoRI.
[7] abbreviates: 10 μM β-CDsul, time course 30–240 min.

Several values for one entry are separate records, joined by “and”; a condition that tells them apart may be missing. Identical values can stand only once. Counter-ions that a name gives are not always drawn. Like-named read-outs stand apart in the source and are kept apart here.

The term IC50 denotes the midpoint of a concentration-inhibition curve.

T1 sequence (P00642 2-277): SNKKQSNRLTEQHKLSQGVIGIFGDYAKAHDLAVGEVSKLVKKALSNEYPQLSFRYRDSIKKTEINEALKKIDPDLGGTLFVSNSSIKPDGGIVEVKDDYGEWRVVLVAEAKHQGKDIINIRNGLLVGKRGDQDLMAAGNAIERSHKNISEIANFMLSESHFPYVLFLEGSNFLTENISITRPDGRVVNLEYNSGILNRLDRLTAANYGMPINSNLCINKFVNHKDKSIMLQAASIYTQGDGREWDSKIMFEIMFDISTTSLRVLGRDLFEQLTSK

Turning to `O=C(O)CN(CCN(CC(=O)O)CC(=O)O)CC(=O)O` [EDTA], the IC50 at EcoRI (setting [6]) was 18 µM and 17 µM; on EcoRI (all three enzymes, Nl-pBR322, read-out: range of IC50 values across EcoRI, HindIII and VspI), 12 to 17 µM; in the experiment on VspI it was 12 µM; against HindIII [1] it was 13 µM and 12 µM.

On to `O=C1N2CN3C(=O)N4CN5C(=O)N6CN7C(=O)N8CN9C(=O)N%10CN%11C(=O)N%12CN%13C(=O)N%14CN1C1C2N2CN%15C(=O)N(CN%16C(=O)N(CN%17C(=O)N(CN%18C(=O)N(CN%19C(=O)N(CN%20C(=O)N(CN1C2=O)C%14C%13%20)C%12C%11%19)C%10C9%18)C8C7%17)C6C5%16)C4C3%15` (stereo not drawn) [CB7], for which the IC50 is about 200 µM with KpnI (linearised pGL3-Basic DNA); about 90 µM in the experiment on KpnI (plasmid pGL3-Basic DNA); about 500 µM in the experiment on XapI (linearised pGL3-Basic DNA); about 500 µM in the experiment on XapI (plasmid pGL3-Basic DNA); about 350 µM with SacI (linearised pGL3-Basic DNA); about 250 µM with SacI (plasmid pGL3-Basic DNA).

As for `O=S(=O)(O)OCC1OC2OC3C(COS(=O)(=O)O)OC(OC4C(COS(=O)(=O)O)OC(OC5C(COS(=O)(=O)O)OC(OC6C(COS(=O)(=O)O)OC(OC7C(COS(=O)(=O)O)OC(OC8C(COS(=O)(=O)O)OC(OC1C(OS(=O)(=O)O)C2OS(=O)(=O)O)C(OS(=O)(=O)O)C8OS(=O)(=O)O)C(OS(=O)(=O)O)C7OS(=O)(=O)O)C(OS(=O)(=O)O)C6OS(=O)(=O)O)C(OS(=O)(=O)O)C5OS(=O)(=O)O)C(OS(=O)(=O)O)C4OS(=O)(=O)O)C(OS(=O)(=O)O)C3OS(=O)(=O)O` (stereo not drawn) [β-CDsul, β-cyclodextrin sulfate], in the experiment on EcoRI and VspI [2] (setting [7]), the “time of maximum concentration of fragment A in EcoRI/VspI co-digestion” value is 60 min. Moreover, the “digestion in EcoRI/VspI co-digestion” value in the experiment on EcoRI and VspI [2] (Five hundred micromolar β-CDsul, 120 min) is on record as “no digestion by either RE”. Further, the “decrease of fragment A concentration (EcoRI action) in EcoRI/VspI co-digestion” value with EcoRI and VspI [3] (setting [7]) is on record as “does not decrease until 240 min”. Also, the “EcoRI inhibition in EcoRI/VspI co-digestion (fragment A concentration)” value in the experiment with EcoRI and VspI [3] (between 5 and 10 μM β-CDsul, 120 min, still no Nl-pBR322, VspI less affected) is given as “significant increase in EcoRI inhibition”. For the same molecule, at EcoRI (EcoRI vs HindIII or VspI), the “fold difference in IC50 values, EcoRI vs HindIII or VspI” value is given as 13- to 27 fold. Also, the IC50 at EcoRI (setting [6]) is 5 µM; in the experiment with VspI, 133 µM; at HindIII [4], 65 µM; in the experiment on Nrul it was 3 µM; on HindIII [5], 6 µM. Also, the “fold more potent at inhibiting EcoRI compared with HindIII” value on EcoRI (ratio of IC50s, EcoRI vs HindIII) stood at 13 fold. The “fold more potent at inhibiting EcoRI compared with VspI” value on EcoRI (ratio of IC50s, EcoRI vs VspI) was “about 27 fold”. Further, the “fold difference in IC50 against VspI and HindIII” value with VspI (VspI vs HindIII) is “two-fold”.

With `OC[C@H]1O[C@@H]2O[C@H]3[C@H](O)[C@@H](O)[C@@H](O[C@H]4[C@H](O)[C@@H](O)[C@@H](O[C@H]5[C@H](O)[C@@H](O)[C@@H](O[C@H]6[C@H](O)[C@@H](O)[C@@H](O[C@H]7[C@H](O)[C@@H](O)[C@@H](O[C@H]8[C@H](O)[C@@H](O)[C@@H](O[C@H]1[C@H](O)[C@H]2O)O[C@@H]8CO)O[C@@H]7CO)O[C@@H]6CO)O[C@@H]5CO)O[C@@H]4CO)O[C@@H]3CO` [β-CD], in the experiment with REs, the “inhibition of REs” value is listed as “no inhibition was observed”.
